Assay: NMR reduction studies with GSH or ascorbic acid
Format: physicochemical
Conditions: up to 10 equiv of reducing agent, 48 h, 37 °C, PBS/D2O, 1H NMR
Method: Thus, all compounds were >95% pure by NMR and HPLC analyses. NMR reduction studies were also undertaken where excess equivalents of reducing agents GSH or ascorbic acid were added to the sample before undertaking multiple NMR measurements over a 48 h period at 37 °C. These reducing agents were chosen to mimic the reducing capacity of the […] environment of the blood and tissue. […] However, once inside the cell, reactions with intracellular components might be induced, rendering the prodrug biodegradable. […] Therefore, the complex is unlikely to be reduced in the bloodstream. Monitoring the Pt(IV) peak, falling as the Pt(II) peak rises, would be ideal for further proof of the stability of these complexes, but the Pt(IV) resonance falls outside the detectable range of our instrument.
One equivalent of the complex was dissolved in 500 μL of PBS using D2O for a ^1H NMR experiment performed on a Bruker AVANCE 400 MHz NMR spectrometer, with 50 dummy scans (approx. 5 min) to allow the sample to reach 37 °C before 128 scans were taken. The sample was removed, and the reducing agent was quickly added. Then the NMR measurement was taken again (50 dummy scans followed by 128 scans). The NMR was subsequently set up to measure one 128-scan experiment after another for 4 h, at which point the sample was removed, stored, and scanned again after 24 and 48 h. […]

Cc1c(C)c2c3c4c1=CC=C[N]4[Pt][N]3C=CC=2.NCCNC(=O)Cc1ccccc1Nc1c(Cl)cccc1Cl.NCCNC(=O)Cc1ccccc1Nc1c(Cl)cccc1Cl.N[C@H]1CCCC[C@@H]1N [complex 4, Pt^IV56MeSS(DCF)2]
stability towards reduction by GSH or ascorbic acid: the compound had not been reduced
